Residue numbers refer to the chain shown, from its start.

Test in all cases: E. coli hemG growth inhibition by herbicide, AtPPO1 variant
What all share (type): cell-based
Details in all cases: read-out: percentage growth inhibition

The target in one assay is T1, AtPPO1 G481K (Arabidopsis thaliana, UniProt P55826, G481K).
T1 construct: expressed in transfected cells; host or cells: E. coli BL21(DE3) hemG, pET24a plasmid
T1 sequence (P55826 35-537 G481K): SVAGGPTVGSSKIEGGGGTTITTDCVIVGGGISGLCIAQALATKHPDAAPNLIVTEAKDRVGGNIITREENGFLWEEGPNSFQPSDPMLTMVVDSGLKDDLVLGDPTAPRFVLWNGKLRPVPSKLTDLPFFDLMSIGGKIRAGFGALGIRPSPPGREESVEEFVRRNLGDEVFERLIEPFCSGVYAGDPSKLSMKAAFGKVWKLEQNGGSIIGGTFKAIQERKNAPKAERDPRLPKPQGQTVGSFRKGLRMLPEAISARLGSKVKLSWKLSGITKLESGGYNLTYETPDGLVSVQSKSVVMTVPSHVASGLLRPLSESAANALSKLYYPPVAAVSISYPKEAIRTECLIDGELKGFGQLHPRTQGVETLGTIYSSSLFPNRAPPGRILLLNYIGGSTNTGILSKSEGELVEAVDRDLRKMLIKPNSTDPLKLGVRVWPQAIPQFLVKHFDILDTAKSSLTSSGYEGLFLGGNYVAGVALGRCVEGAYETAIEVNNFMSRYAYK
The essentials:
(§1)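 Variant plasmids were transformed into hemG-null BL21(DE3) and precultured 24 h with hematin. Washed cells were diluted 1:100 into Terrific broth containing 0.1 mM IPTG and herbicide (6.25 ppm 0 or E; 0.78 ppm B) or DMSO. After 24 h at 37° C, OD600 gave percent inhibition.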

In a further assay the target is T2, AtPPO1 K281E (Arabidopsis thaliana, UniProt P55826, K281E).
T2 construct: expressed in transfected cells; host or cells: E. coli BL21(DE3) hemG (hemG replaced by CmR), pET24a plasmid
T2 sequence (P55826 35-537 K281E): T1 sequence (P55826 35-537 G481K) with K247E, K447G
The essentials:
as §1

For the next assay, the target named is T3, AtPPO1 V127L (Arabidopsis thaliana, UniProt P55826, V127L).
T3 construct: expressed in transfected cells; host or cells: E. coli BL21(DE3) hemG (hemG replaced by CmR), pET24a plasmid
T3 sequence (P55826 35-537 V127L): T1 sequence (P55826 35-537 G481K) with V93L, K447G
The gist of the method:
as §1

The target of the next assay is T4, AtPPO1 Y362C (Arabidopsis thaliana, UniProt P55826, Y362C).
T4 construct: expressed in transfected cells; host or cells: E. coli BL21(DE3) hemG, pET24a plasmid
T4 sequence (P55826 35-537 Y362C): T1 sequence (P55826 35-537 G481K) with Y328C, K447G
The gist of the method:
as §1

Regarding `C#CCN1C(=O)C(F)(F)Oc2cc(F)c(-n3c(=O)n(C)c(=S)n(C)c3=O)cc21` [Herbicide B, trifludimoxazin], the inhibition at 0.78 ppm at AtPPO1 G481K turned out to be 10%; on AtPPO1 K281E it was 37%; on AtPPO1 V127L, 31%; on AtPPO1 Y362C, 37%.
`CCOC(=O)[C@]1(C)CC(c2cc(-n3c(=O)n(C)c(=S)n(C)c3=O)c(F)cc2Cl)=NO1` [Herbicide D, ethyl (5S)-3-[2-chloro-5-(3,5-dimethyl-2,6-dioxo-4-thioxo-1,3,5-triazinan-1-yl)-4-fluoro-phenyl]-5-methyl-4H-isoxazole-5-carboxylate]: the inhibition at 6.25 ppm on AtPPO1 G481K is 12%; on AtPPO1 K281E, 33%; on AtPPO1 V127L it was 29%; at AtPPO1 Y362C it was 43%.
As to `CC(C)N(C)S(=O)(=O)NC(=O)c1cc(-n2c(=O)cc(C(F)(F)F)n(C)c2=O)c(F)cc1Cl` [Herbicide E, saflufenacil], the inhibition at 6.25 ppm on AtPPO1 G481K amounted to 0%; at AtPPO1 K281E, 61%; on AtPPO1 V127L, 65%; at AtPPO1 Y362C, 58%.

As usually defined, the inhibition is how much of the control response was suppressed.
